Assay results reported in the supplement of paper PMC10307832.

Key:
Assay in all cases: relative viability (nuclei count vs DMSO), 5 days (fraction); higher = more cells survive
Adavosertib = compound: C=CCn1c(=O)c2cnc(Nc3ccc(N4CCN(C)CC4)cc3)nc2n1-c1cccc(C(C)(C)O)n1 [Adavosertib]
Method in brief: (§1)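 Five library-drug doses spaced by √10 were pinned onto vehicle-anchored 1536-well plates of lung cancer cell lines that had been kept overnight at 37 °C. Cells went 5 days without medium change, then were fixed, permeabilised and Hoechst-stained together, imaged at 4× and counted by MetaXpress. Viability is the ratio of treated-well to vehicle-well nuclei, taken as a median over plates. Plates required control CV below 25% and at least one doubling.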

Nelarabine = compound: COc1nc(N)nc2c1ncn2[C@@H]1O[C@H](CO)[C@@H](O)[C@@H]1O [Nelarabine]
Method in brief: as §1

Adavosertib + Alpelisib = compound: C=CCn1c(=O)c2cnc(Nc3ccc(N4CCN(C)CC4)cc3)nc2n1-c1cccc(C(C)(C)O)n1 [Adavosertib] + Cc1nc(NC(=O)N2CCC[C@H]2C(N)=O)sc1-c1ccnc(C(C)(C)C(F)(F)F)c1 [Alpelisib] (partner 2 µM)
Method in brief: (§2)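 After 5 days of treatment, lung cancer cells in 1536-well plates were fixed and stained in a single step (final 0.05% Triton X-100, 1% formaldehyde, 1 ug/ml Hoechst) and their nuclei counted on 4× images. Treatment had been applied by pin tool the day after seeding as one drug alone or as a fixed anchor-drug dose with five library-drug doses (not always all listed) in √10 steps. Relative viability is the nuclei count of treated wells divided by that of vehicle wells, and values are medians of duplicate plates.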

Nelarabine + Pemetrexed = compound: COc1nc(N)nc2c1ncn2[C@@H]1O[C@H](CO)[C@@H](O)[C@@H]1O [Nelarabine] + Nc1nc2[nH]cc(CCc3ccc(C(=O)N[C@@H](CCC(=O)O)C(=O)O)cc3)c2c(=O)[nH]1 [Pemetrexed] (partner 0.2 µM)
Method in brief: as §2

Row | Cell Line | relative viability (Adavosertib; 0.01 µM) | relative viability (Adavosertib; 0.03162 µM) | relative viability (Adavosertib; 0.1 µM) | relative viability (Adavosertib; 0.3162 µM) | relative viability (Nelarabine; 0.01 µM) | relative viability (Nelarabine; 0.03162 µM) | relative viability (Nelarabine; 0.1 µM) | relative viability (Nelarabine; 0.3162 µM) | relative viability (Nelarabine; 1 µM) | relative viability (Adavosertib + Alpelisib; first compound 0.01 µM) | relative viability (Adavosertib + Alpelisib; first compound 0.03162 µM) | relative viability (Adavosertib + Alpelisib; first compound 0.1 µM) | relative viability (Adavosertib + Alpelisib; first compound 0.3162 µM) | relative viability (Nelarabine + Pemetrexed; first compound 0.01 µM) | relative viability (Nelarabine + Pemetrexed; first compound 0.03162 µM) | relative viability (Nelarabine + Pemetrexed; first compound 0.1 µM) | relative viability (Nelarabine + Pemetrexed; first compound 0.3162 µM) | relative viability (Nelarabine + Pemetrexed; first compound 1 µM)
1 | 201T | 0.973 | 1.02 | 0.981 | 1.04 | 1.03 | 0.907 | 1.04 | 1.02 | 0.999 | 0.986 | 1.03 | 0.94 | 0.962 | 0.378 | 0.279 | 0.349 | 0.417 | 0.444
2 | A549 | 0.933 | 0.984 | 1 | 1.01 | 1.19 | 1.04 | 1.02 | 1 | 0.911 | 0.813 | 0.896 | 0.957 | 0.804 |  |  |  |  | 
3 | A-427 | 1.02 | 1.02 | 1.05 | 0.894 | 1.06 | 1.08 | 1.04 | 1.05 | 0.938 | 1.08 | 1.11 | 1.1 | 1.04 | 1.04 | 1.05 | 1.11 | 0.984 | 0.838
4 | ABC-1 | 0.885 | 0.893 | 0.948 | 0.96 | 1.1 | 0.911 | 0.988 | 1.11 | 0.943 | 0.993 | 1.04 | 1.28 | 1.08 |  |  |  |  | 
5 | BEN | 0.886 | 1.04 | 1.06 | 1.09 | 1.05 | 1.05 | 1.02 | 1.19 | 1.03 | 1.24 | 1.09 | 1.04 | 1.18 | 0.788 | 0.822 | 0.765 | 0.837 | 0.752
6 | CAL-12T | 0.948 | 1.07 | 1.1 | 0.856 | 1.15 | 1.02 | 0.969 | 0.99 | 1.05 | 1.09 | 1.27 | 1.2 | 0.929 | 1.55 | 1.19 | 1.42 | 1.2 | 1.22
7 | COR-L23 | 1.14 | 1.02 | 1.03 | 0.585 | 1.49 | 1.21 | 0.96 | 1.06 | 1.07 | 0.778 | 0.687 | 0.729 | 0.243 | 0.205 | 0.194 | 0.193 | 0.184 | 0.203
8 | COR-L 105 | 0.865 | 0.885 | 0.807 | 0.747 | 1.01 | 1.12 | 0.971 | 0.842 | 1.04 | 1.05 | 1.12 | 0.972 | 0.798 | 1.11 | 1.26 | 1.16 | 1.15 | 1.08
9 | Calu-6 | 1.03 | 1.03 | 1.05 | 0.6 | 1.19 | 1.13 | 1.04 | 1.1 | 1.1 | 0.983 | 0.856 | 0.94 | 0.793 |  |  |  |  | 
10 | ChaGo-K-1 | 0.947 | 0.995 | 1.05 | 0.918 | 1.05 | 0.912 | 0.962 | 0.964 | 0.962 |  |  |  |  | 0.242 | 0.249 | 0.261 | 0.258 | 0.252
11 | EBC-1 | 0.974 | 1.02 | 1.07 | 0.971 | 1.19 | 1.14 | 1.05 | 1.01 | 0.975 | 0.98 | 0.843 | 0.921 | 0.81 |  |  |  |  | 
12 | IA-LM | 0.927 | 0.953 | 1 | 1.03 | 1.1 | 1.12 | 1.06 | 1.07 | 0.971 | 0.649 | 0.731 | 0.833 | 0.931 |  |  |  |  | 
13 | NCI-H522 | 1.04 | 0.975 | 1.05 | 1.06 | 1.01 | 0.949 | 1.09 | 0.843 | 1.05 |  |  |  |  | 1.1 | 0.923 | 1.03 | 0.999 | 1.11
14 | NCI-H727 | 0.961 | 0.898 | 1.03 | 0.936 | 1.22 | 0.891 | 0.856 | 0.97 | 0.896 | 0.545 | 0.593 | 0.629 | 0.577 |  |  |  |  | 
15 | NCI-H1299 | 1.03 | 0.999 | 1.04 | 0.789 | 1.07 | 1.07 | 1.04 | 1.07 | 1.03 | 1.06 | 0.979 | 1.07 | 0.997 |  |  |  |  | 
16 | NCI-H1648 | 0.907 | 0.847 | 0.838 | 0.71 | 0.713 | 0.929 | 0.776 | 1.11 | 0.881 |  |  |  |  |  | 0.805 |  | 0.885 | 0.75
17 | NCI-H1650 | 0.867 | 0.981 | 0.943 | 0.472 | 1.13 | 0.999 | 0.845 | 0.978 | 0.928 |  |  |  |  | 0.531 | 0.406 | 0.381 | 0.432 | 0.343
18 | NCI-H1703 | 1.29 | 0.892 | 1.08 | 0.249 | 1.3 | 1 | 1.06 | 1.06 | 0.953 | 0.367 | 0.361 | 0.304 | 0.147 |  |  |  |  | 
19 | NCI-H2342 | 1.01 | 1.02 | 0.986 | 0.96 | 1.07 | 0.833 | 1.01 | 0.969 | 0.99 |  |  |  |  | 0.901 | 0.659 | 0.681 | 0.817 | 0.801
20 | SW 900 | 0.738 | 1.07 | 0.885 | 0.49 | 0.998 | 0.897 | 1.06 | 1 | 0.896 |  |  |  |  | 0.53 | 0.538 | 0.482 | 0.526 | 0.506
